From US20150133495A1 (ViroCura Therapeutics, Inc., priority 2013, published 2015)
pEC50: −log10 of the molar value.

tested on: HCV replicon (HCV1b sub-genomic, Huh-7 cells); assay: HCV replicon RNA replication assay (luciferase reporter); type: cell-based, Hepatitis C virus (CON-1 genotype b); conditions: Hepatitis C virus, Huh-7
Description: All curve fitting was conducted using non-linear regression analyses from PRISM (version 4.0c, GraphPad Inc.) and the determination of Rmax and EC50 or IC50 parameters were obtained from sigmoidal dose-response phase (variable slope) equation.
The replicon HCV1b is generated based on the wild-type sequence CON-1 genotype b (GenBank accession number AJ238799; Lohmann et al., Science 1999, 285: 110-113) and expressed the sub-genomic fragment HCV NS3-NS4A-NS4B-NS5A-NS5B. The replicon contain a hybrid HCV-IRES 5′UTR, a modified luciferase reporter gene expressed as a luciferase-Ubi-neomycin phosphotransferase gene fusion and an EMCV IRES NS3-NS5B subgenomic fragment with its 3′UTR. To generate cell lines harboring the replicon, Huh-7 cells are electroporated with purified in vitro HCV1b RNA transcripts and stable cell lines are selected in the presence of G418. Stable replicon cell lines are established as described in Science 1999, 285: 110-113. The amount of luciferase expressed by selected cells directly correlates with the level of HCV RNA replication, as measured by real-time PCR.
Stable HCV replicon cells are maintained in Dulbecco's Modified Eagle Medium (DMEM) supplemented with 10% FBS and 0.5 mg/ml G418. During the assay, DMEM supplemented with 10% FBS, containing 0.5% DMSO and lacking G418 are used as assay medium. For the assay, cell stocks are trypsinized and diluted in assay medium to distribute 7,500 cells in 96-well plates. The plates are then incubated at 37° until compound addition. Serial dilutions of the test compound are prepared in 100% DMSO, before dilution in assay medium to a final DMSO concentration of 0.5% to generate a concentration dose response curves. A fixed volume from each well of the compound dilution plate is transferred to a corresponding well of the cell culture plate. The cell culture plate is incubated at 37° C. with 5% CO2 for 72 hours. Following the 72 h incubation period, the medium is aspirated from the 96-well assay plate and a volume of 50_l of lysis buffer 100 mM Tris acetate, 20 mM Mg acetate, 2 mM EGTA, 3.6 mM ATP, 1% Brij 58, 0.7%_-mercaptoethanol containing 45_g/ml luciferine (pH 7.9) is added to each well. The luciferase activity is determined using the luciferase substrate and the luminescence is detected on a MicroBeta JET 1450 LSC & Luminescence Counter (Perkin Elmer) instrument. The luminescence in each well of the culture plate is a measure of the amount of HCV RNA replication in the presence of various concentrations of inhibitor. The % inhibition is calculated for each inhibitor concentration and used to determine the concentration that results in 50% inhibition of HCV replication (EC50).

Row | SMILES | pEC50
1 | Cc1noc(C)c1C(=O)O/N=C(\N)c1cccc(C(F)(F)F)c1 [Compound 61, reference compound] | 5.00 to 6.00
2 | Cc1onc(-c2ccccc2Cl)c1C(=O)O/N=C1/CCCCN1 [Compound 64, reference compound] | > 6.30
3 | Cc1noc(C)c1C(=O)O/N=C(\N)c1ccc(-c2csnn2)cc1 [Compound 62, reference compound] | 6.00 to 6.30

same assay, conditions: Hepatitis C virus, Huh-7, 72 h, read-out: EC50 (Range)

Row | SMILES | pEC50
4 | COc1ccccc1C/C(N)=N/OC(=O)c1c(C)cccc1C [Example 7, (Z)—N′-((2,6-dimethylbenzoyl)oxy)-2-(2-methoxyphenyl)acetimidamide] | 6.00 to 6.30
5 | Cc1onc(-c2ccccc2Cl)c1C(=O)O/N=C(\N)c1cccc(Br)c1 [Example 34, (Z)-3-Bromo-N′-((3-(2-chlorophenyl)-5-methylisoxazole-4-carbonyl)oxy)benzimidamide] | 5.00 to 6.00
6 | Cc1cccc(-c2ccccc2)c1C(=O)O/N=C(\N)c1ccc(OCc2ccc(Cl)cc2)cc1 [Example 29, (Z)-4-((4-chlorobenzyl)oxy)-N′-((3-methyl-[1,1′-biphenyl]-2-carbonyl)oxy)benzimidamide] | > 6.30
7 | CC(C)(C(=O)O/N=C(\N)c1ccc2c(c1)OCO2)c1ccccc1 [Example 6, (Z)—N′-((2-methyl-2-phenylpropanoyl)oxy)benzo[d][1,3]dioxole-5-carboximidamide] | 6.00 to 6.30
8 | Cc1ccc(/C(N)=N/OC(=O)c2cc(C)oc2C)cc1 [Example 25, (Z)—N′-((2,5-dimethylfuran-3-carbonyl)oxy)-4-methylbenzimidamide] | 5.00 to 6.00
9 | COc1ccc(C/C(N)=N/OC(=O)c2ccccc2-c2ccccc2)cc1 [Example 5, (Z)—N′-(([1,1′-biphenyl]-2-carbonyl)oxy)-2-(4-methoxyphenyl)acetimidamide] | > 6.30
10 | COc1ccccc1C/C(N)=N/OC(=O)c1c(-c2ccccc2Cl)noc1C(C)C [Example 15, (Z)—N′-((3-(2-chlorophenyl)-5-isopropylisoxazole-4-carbonyl)oxy)-2-(2-methoxyphenyl)acetimidamide] | > 6.30
11 | N/C(=N\OC(=O)c1ccccc1C(F)(F)F)c1ccc2c(c1)OCO2 [Example 35, (Z)—N′-((2-(trifluoromethyl)benzoyl)oxy)benzo[d][1,3]dioxole-5-carboximidamide] | 5.00 to 6.00
12 | Cc1onc(-c2ccccc2Cl)c1C(=O)O/N=C(\N)CCc1ccc(Br)cc1 [Example 10, (Z)-3-(4-bromophenyl)-N′-((3-(2-chlorophenyl)-5-methylisoxazole-4-carbonyl)oxy)propanimidamide] | > 6.30
13 | N/C(=N\OC(=O)c1c(-c2ccccc2Cl)noc1-c1ccccc1)c1ccc2c(c1)OCO2 [Example 18, (Z)—N′-((3-(2-chlorophenyl)-5-phenylisoxazole-4-carbonyl)oxy)benzo[d][1,3]dioxole-5-carboximidamide] | 6.00 to 6.30
14 | N/C(=N\OC(=O)c1ccccc1-c1ccccc1C(=O)O)c1ccc2c(c1)OCO2 [Example 45, (Z)-2′-((((amino(benzo[d][1,3]dioxol-5-yl)methylene)amino)oxy)carbonyl)-[1,1′-biphenyl]-2-carboxylic acid] | < 5.00
15 | Cc1ccc2ccccc2c1C(=O)O/N=C(\N)c1ccc2c(c1)OCO2 [Example 43, (Z)—N′-((2-methyl-1-naphthoyl)oxy)benzo[d][1,3]dioxole-5-carboximidamide] | 6.00 to 6.30
16 | COc1ccc(C/C(N)=N/OC(=O)c2c(-c3ccccc3Cl)noc2C)cc1 [Example 23, (Z)—N′-((3-(2-chlorophenyl)-5-methylisoxazole-4-carbonyl)oxy)-2-(4-methoxyphenyl)acetimidamide] | 6.00 to 6.30
17 | Cc1onc(-c2ccccc2Cl)c1C(=O)O/N=C(\N)Cc1nc2ccccc2s1 [Example 24, (Z)-2-(benzo[d]thiazol-2-yl)-N′-((3-(2-chlorophenyl)-5-methylisoxazole-4-carbonyl)oxy)acetimidamide] | 5.00 to 6.00
18 | Cc1onc(-c2ccccc2Cl)c1C(=O)O/N=C(/c1ccc2c(c1)OCO2)N(C)C [Example 19, (Z)—N′-((3-(2-chlorophenyl)-5-methylisoxazole-4-carbonyl)oxy)-N,N-dimethylbenzo[d][1,3]dioxole-5-carboximidamide] | 5.00 to 6.00
19 | Cc1cccc(C)c1C(=O)O/N=C(\N)Cc1ccc(OCc2ccc(F)cc2)cc1 [Example 37, (Z)—N′-((2,6-dimethylbenzoyl)oxy)-2-(4-((4-fluorobenzyl)oxy)phenyl)acetimidamide] | 6.00 to 6.30

Row | SMILES | pEC50
20 | Cc1nc(/C(N)=N\OC(=O)c2c(-c3ccccc3)noc2C)cs1 [Example 30, (E)-2-methyl-N′-((5-methyl-3-phenylisoxazole-4-carbonyl)oxy)thiazole-4-carboximidamide] | 5.00 to 6.00
21 | COc1ccccc1C/C(N)=N/OC(=O)c1c(-c2ccccc2Cl)noc1C [Example 22] | > 6.30
22 | COc1ccccc1C/C(N)=N/OC(=O)c1ccccc1-c1ccccc1C(=O)OC(C)C [Example 28, (Z)-isopropyl 2′-((((1-amino-2-(2-methoxyphenyl)ethylidene)amino)oxy)carbonyl)-[1,1′-biphenyl]-2-carboxylate] | > 6.30
23 | Cc1cc(C)c(C(=O)O/N=C(\N)c2ccc3c(c2)OCO3)c(C)c1 [Example 26, (Z)—N′-((2,4,6-rimethylbenzoyl)oxy)benzo[d][1,3]dioxole-5-carboximidamide] | > 6.30
24 | COc1ccc(/C(N)=N/OC(=O)c2c(-c3ccccc3Cl)noc2C)cc1 [Example 46, (Z)—N′-((3-(2-chlorophenyl)-5-methylisoxazole-4-carbonyl)oxy)-4-methoxybenzimidamide] | 6.00 to 6.30
25 | N/C(=N\OC(=O)c1ccccc1Cc1ccccc1)c1ccc2c(c1)OCO2 [Example 44, (Z)—N′-((2-benzylbenzoyl)oxy)benzo[d][1,3]dioxole-5-carboximidamide] | 6.00 to 6.30
26 | Cc1noc(C)c1C(=O)O/N=C(\N)c1ccc(Oc2ccccc2)cc1 [Example 31, (Z)—N′-((3,5-dimethylisoxazole-4-carbonyl)oxy)-4-phenoxybenzimidamide] | 5.00 to 6.00
27 | CC(C)OC(=O)c1ccccc1-c1ccccc1C(=O)O/N=C(\N)c1ccc2c(c1)OCO2 [Example 38, (Z)-isopropyl 2′-((((amino(benzo[d][1,3]dioxol-5-yl)methylene)amino)oxy)carbonyl)-[1,1′-biphenyl]-2-carboxylate] | > 6.30
28 | CC(C(=O)O/N=C(\N)c1ccc2c(c1)OCO2)(c1ccccc1)c1ccccc1 [Example 9, (Z)—N′-((2,2-diphenylpropanoyl)oxy)benzo[d][1,3]dioxole-5-carboximidamide] | > 6.30
29 | Cc1cccc(C)c1C(=O)O/N=C(\N)c1ccc(-c2csnn2)cc1 [Example 42, (Z)—N′-((2,6-dimethylbenzoyl)oxy)-4-(1,2,3-thiadiazol-4-yl)benzimidamide] | 6.00 to 6.30
30 | CC(C)c1onc(-c2ccccc2Cl)c1C(=O)O/N=C(\N)c1ccc(OCc2ccc(Cl)cc2)cc1 [Example 12, (Z)-4-((4-chlorobenzyl)oxy)-N′-((3-(2-chlorophenyl)-5-isopropylisoxazole-4-carbonyl)oxy)benzimidamide] | 6.00 to 6.30
31 | COc1ccc(C/C(N)=N/OC(=O)c2c(C)cccc2C)c(OC)c1 [Example 2, (Z)-2-(2,4-dimethoxyphenyl)-N′-((2,6-dimethylbenzoyl)oxy)acetimidamide] | > 6.30
32 | Cc1noc(C)c1C(=O)O/N=C(\N)c1ccc(OCc2ccc(Cl)cc2)cc1 [Example 32, (Z)-4-((4-chlorobenzyl)oxy)-N′-((3,5-dimethylisoxazole-4-carbonyl)oxy)benzimidamide] | 6.00 to 6.30
33 | N/C(=N\OC(=O)c1c(-c2ccccc2Cl)noc1-c1ccncc1)c1ccc2c(c1)OCO2 [Example 17, (Z)—N′-((3-(2-chlorophenyl)-5-(pyridin-4-yl)isoxazole-4-carbonyl)oxy)benzo[d][1,3]dioxole-5-carboximidamide] | 5.00 to 6.00
34 | COc1cccc(/C(N)=N/OC(=O)c2c(-c3ccccc3Cl)noc2C)c1 [Example 50, (Z)—N′-((3-(2-chlorophenyl)-5-methylisoxazole-4-carbonyl)oxy)-3-methoxybenzimidamide] | 6.00 to 6.30
35 | Cc1onc(-c2ccccc2Cl)c1C(=O)O/N=C(\N)c1ccc2ccccc2n1 [Example 47, (Z)—N′-((3-(2-chlorophenyl)-5-methylisoxazole-4-carbonyl)oxy)quinoline-2-carboximidamide] | 5.00 to 6.00
